Earlier results as cited in patent EP4459286A1, “KIT FOR QUANTITATIVELY DETERMINING TACROLIMUS IN WHOLE BLOOD BY LOW-RESISTANCE LATEX-ENHANCED IMMUNE COMPETITION METHOD, AND USE THEREOF” (SHANGHAI YUNZE BIOTECHNOLOGY CO., LTD, priority 2021, dated 2023).
Like-named read-outs stand apart in the source and are kept apart here.

Experiments:
[1] = rescue therapy, cyclosporine ineffective
[2] = compared with cyclosporine

Compound: C=CC[C@@H]1/C=C(\C)C[C@H](C)C[C@H](OC)[C@H]2O[C@@](O)(C(=O)C(=O)N3CCCC[C@H]3C(=O)O[C@H](/C(C)=C/[C@@H]3CC[C@@H](O)[C@H](OC)C3)[C@H](C)[C@@H](O)CC1=O)[C@H](C)C[C@@H]2OC [tacrolimus, Tacrolimus]
- success rate ([1]; kidney transplantation patients): 74%
- success rate ([1]; liver transplantation patients): 87%
- effect of preventing rejection in various organ transplants [2]: superior to that of cyclosporine
